Measured values: US12428399B2, “Non-hygroscopic crystalline salts of a pyrazole compound, and pharmaceutical compositions and use thereof” (Yissum Research Development Company of the Hebrew …, priority 2019, dated 2025)
Counter-ions that a name gives are not always drawn. Like-named read-outs stand apart in the source and are kept apart here.

Tests used:
[1] = Dynamic vapor sorption (DVS) analysis of salts; type: physicochemical; conditions: for loss upon drying at 5% RH / gain from 5 to 95% RH / loss from 95 to 5% RH: DVS isotherm graph; for gain from 5 to 95% RH: adsorption cycle; for loss from 95 to 5% RH: desorption cycle
Description: The crystalline adipate, benzoate, and tosylate salts were characterized with XRPD, DSC, TGA, and DVS. The DVS analyses were carried out using TA Instruments Q5000 Dynamic Vapor Sorption analyzer. The instrument was calibrated with standard weights and a sodium bromide standard for humidity.

[2] = Solubility by aliquot addition of test solvent with visual inspection; type: physicochemical; conditions: solution from solubility test
From the text: Whether dissolution had occurred was judged by visual inspection after addition of each solvent aliquot.

Myc, MDM2, and MCL1 = conditions: cited from earlier work
[3] = system: Ser 45 β-catenin phosphorylation; p53 and β-catenin protein expression; conditions: cited from earlier work
CK1α = CK1α (Homo sapiens, UniProt P48729); conditions: cited from earlier work
[4] = system: acute myeloid leukemia (AML); conditions: AML mouse models and human-patient-derived xenograph mouse models; cited from earlier work
[5] = Bulk density of the ditosylate salt; type: physicochemical
[6] = indicated by DVS isotherm graph

Sequence of CK1α (P48729 whole entry): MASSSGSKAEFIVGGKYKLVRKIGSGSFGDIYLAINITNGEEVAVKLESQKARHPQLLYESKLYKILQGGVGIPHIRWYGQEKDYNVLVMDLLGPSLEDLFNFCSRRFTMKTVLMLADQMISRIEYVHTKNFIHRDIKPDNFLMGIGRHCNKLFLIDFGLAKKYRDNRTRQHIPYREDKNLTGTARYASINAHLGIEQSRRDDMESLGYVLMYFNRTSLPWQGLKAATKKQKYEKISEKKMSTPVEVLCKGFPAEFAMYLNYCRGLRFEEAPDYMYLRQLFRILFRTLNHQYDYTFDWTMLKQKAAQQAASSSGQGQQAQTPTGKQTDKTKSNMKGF

## Cn1ncc(-c2nc(NC3CCC(N)CC3)ncc2Cl)c1CC1CC1 (stereo not drawn) [benzoate salt, (1r,4r)-N^1-(5-chloro-4-(5-(cyclopropylmethyl)-1-methyl-1H-pyrazol-4-yl)pyrimidin-2-yl)cyclohexane-1,4-diamine]
[1]
  loss upon drying at 5% RH: 0.02%
  gain from 5 to 95% RH: 1.20%
  loss from 95 to 5% RH: 1.30%
[2]; listed as Benzoate
  pH of Solution: 4.31

## Cn1ncc(-c2nc(N[C@H]3CC[C@H](N)CC3)ncc2Cl)c1CC1CC1 [the Compound, (1r,4r)-N^1-(5-chloro-4-(5-(cyclopropylmethyl)-1-methyl-1H-pyrazol-4-yl)pyrimidin-2-yl)cyclohexane-1,4-diamine]
Myc, MDM2, and MCL1
  expression of key cancer initiating genes, including Myc, MDM2, and MCL1: significantly reduces
[3]
  Ser 45 β-catenin phosphorylation: reduces
  p53 and β-catenin protein expression: increases
CK1α
  CK1α inhibition: inhibitor

## Cl.Cl.Cn1ncc(-c2nc(N[C@H]3CC[C@H](N)CC3)ncc2Cl)c1CC1CC1 [dihydrochloride salt, (1r,4r)-N^1-(5-chloro-4-(5-(cyclopropylmethyl)-1-methyl-1H-pyrazol-4-yl)pyrimidin-2-yl)cyclohexane-1,4-diamine dihydrochloride, reference compound]
[4]
  treating acute myeloid leukemia (AML): effective
[1]
  loss upon drying at 5% RH: 1.2%
  gain from 5 to 95% RH: 17%
  loss from 95 to 5% RH: 16%
[1]; background statement, no method given there
  hygroscopicity: highly hygroscopic
[1]; [6]
  hygroscopicity: highly hygroscopic
[2]
  pH of Solution: 1.55

## (1r,4r)-N^1-(5-chloro-4-(5-(cyclopropylmethyl)-1-methyl-1H-pyrazol-4-yl)pyrimidin-2-yl)cyclohexane-1,4-diamine [adipate salt]
[1]
  loss upon drying at 5% RH: 0.05%
  gain from 5 to 95% RH: 1.05%
  loss from 95 to 5% RH: 1.11%
[1]; [6]
  hygroscopicity: not hygroscopic
[2]
  pH of Solution: 4.73

## Cn1ncc(-c2nc(NC3CCC(N)CC3)ncc2Cl)c1CC1CC1 (stereo not drawn) [ditosylate salt, (1r,4r)-N^1-(5-chloro-4-(5-(cyclopropylmethyl)-1-methyl-1H-pyrazol-4-yl)pyrimidin-2-yl)cyclohexane-1,4-diamine]
25° C./60% RH, 6-Month
  Assay by HPLC (as free base): 100.5 % w/w
  Purity by HPLC: 99.8 % area
  Water contectnt by Karl Fisher: 0.41 % w/w
  pTSA content by HPLC: 48.6 % w/w
25° C./60% RH, Initial
  Assay by HPLC (as free base): 100.5 % w/w
  Purity by HPLC: 99.8 % area
  Water contectnt by Karl Fisher: 0.41 % w/w
  pTSA content by HPLC: 49.9 % w/w
40° C./75% RH, 6-Month
  Assay by HPLC (as free base): 100.3 % w/w
  Purity by HPLC: 99.8 % area
  Water contectnt by Karl Fisher: 0.58 % w/w
  pTSA content by HPLC: 49.5 % w/w
40° C./75% RH, Initial
  Assay by HPLC (as free base): 100.5 % w/w
  Purity by HPLC: 99.8 % area
  Water contectnt by Karl Fisher: 0.41 % w/w
  pTSA content by HPLC: 49.9 % w/w
[5]
  bulk density: 0.377 g/mL
[1]; [6]
  hygroscopicity: not hygroscopic
[2]
  pH of Solution: 5.82
